Columns and labels:
Type in all cases: cell-based, S. cerevisiae
Details in all cases: 10 nmol/disk, 30 °C, 48 h
[1] = system: Y525 MFS efflux pump CaMDR1a overexpressed; experiment: Agarose (disk) diffusion assay, strain Y525
Text: (§1) Final compounds were screened as racemic mixtures using agarose diffusion assays to visualize their inhibitory activity against a panel of recombinant S. cerevisiae strains i.e., S. cerevisiae strains expressing control levels of wild-type CYP51 (ScCYP51), overexpressed wild-type ScCYP51, overexpressed azole-resistant ScCYP51 Y140F/H mutations and overexpressed C. albicans efflux pumps MDR1a or CDR1B (Figure and Table S1).
(§2) The susceptibilities of S. cerevisiae and Candida species strains to azole compounds were observed as zones of growth inhibition in agarose diffusion assays. The disk diffusion assays were carried out as described by Keniya et al. Complete supplement mixture (CSM) agarose (0.6% agarose [wt/vol]; 20 mL of synthetic defined medium (SD); pH 6.8–7) was solidified in a rectangular Petri dish which was overlaid with CSM agarose (0.6% [wt/vol]; 5 mL; pH 6.8–7) seeded with yeast cells at an optical density (OD600) of 0.008 (118,000 cells per 1 mL of overlay). Azole compounds (10 nmol/disk) were applied to sterile BBL paper disks (Becton Dickinson Co., Sparks, MD) and placed on solidified overlays. Cell growth was assessed after incubation at 30 °C for 48 h.

[2] = system: Y2301 ScCYP51 Y140F mutant; experiment: Agarose (disk) diffusion assay, strain Y2301
Text: as §1, §2

[3] = system: Y2513 ScCYP51 Y140H mutant; experiment: Agarose (disk) diffusion assay, strain Y2513
Text: as §1, §2

[4] = system: Y2300 ScCYP51 overexpressed; experiment: Agarose (disk) diffusion assay, strain Y2300
Text: as §1, §2

SMILES | zone of growth inhibition (inhibitory activity in words) [1] | zone of growth inhibition (inhibitory activity in words) [2] | zone of growth inhibition (inhibitory activity in words) [3] | zone of growth inhibition (inhibitory activity in words) [4]
O=C(NCc1ccc(-c2ccccc2)cc1)C(Cn1cncn1)c1ccc(F)cc1F (stereo not shown) [Compound 37] | low inhibitory activity | low inhibitory activity | low inhibitory activity | 
O=C(NCc1ccc(-c2ccc(Cl)cc2)cc1)C(Cn1cncn1)c1ccc(F)cc1F (stereo not shown) [Compound 38] | low inhibitory activity | low inhibitory activity | low inhibitory activity | 
O=C(NCc1ccc(-c2ccc(C(F)(F)F)cc2)cc1)C(Cn1cncn1)c1ccc(F)cc1F (stereo not shown) [Compound 39] | lacked inhibitory activity | lacked inhibitory activity | lacked inhibitory activity | 
O=C(NCc1ccc(-c2ccc(OC(F)(F)F)cc2)cc1)C(Cn1cncn1)c1ccc(F)cc1F (stereo not shown) [Compound 40] | low inhibitory activity | low inhibitory activity | low inhibitory activity | 
O=C(Nc1ccc(CNC(=O)C(Cn2cncn2)c2ccc(F)cc2F)cc1)c1cnccn1 (stereo not shown) [Compound 48, N-(4-((2-(2,4-Difluorophenyl)-3-(1H-1,2,4-triazol-1-yl)propanamido)methyl)phenyl)pyrazine-2-carboxamide] |  |  |  | lower inhibitory activity
